Test results as given in patent US10261090B2, “Glutathione-detecting fluorescent probe” (THE UNIVERSITY OF TOKYO, priority 2014, dated 2019).
pKd: −log10 of the molar value. Read-outs that look alike come from different tables or passages of the source.

Tests used:
[1] = Ultraviolet-visible and fluorescence spectroscopy of the probes; format: physicochemical; settings: for Quantum yield: 0.2 M sodium phosphate buffer pH 7.4
Method: (§1) Glutathione was reacted with the fluorescent probe 2Me SiR600 (compound 1) synthesized in Example 1, and fluorescence assay was conducted. A Shimadzu UV-2450 (Shimadzu Corporation) and a Hitachi F-7000 (Hitachi, Ltd.) were used in ultraviolet-visible spectroscopy and fluorescence spectroscopy. A fluorescent probe was diluted to a final concentration of 1 μM in 0.2 M sodium phosphate buffer (pH 7.4), containing 0.1-1% DMSO. The absorption spectrum and fluorescence spectrum were measured when various concentration of glutathione was added in the range of 1 μM-100 mM. The excitation wavelength was 590 nm.

[2] = test system: intracellular glutathione in cultured cancer cells; assay: Cell imaging in cultured cancer cells by confocal microscope; format: cell-based; settings: for change in fluorescence intensity ratio in cells: NEM addition, FIGS. 8 and 9
Method: Next, cell imaging in cultured cancer cells was conducted using compound 1 (2Me SiR600) as a fluorescent probe. Measurement was conducted using a confocal microscope.
Fluorescence imaging in cultured cancer cells was conducted in the same way as in Example 4 using compound 8 (2Me SiR600-TMR) as the fluorescent probe (FIG. 8).

[3] = Fluorescence assay for glutathione: Kd from absorption/fluorescence change on glutathione addition; format: binding
Method: as §1

[4] = Table 1, 1 μM probe, 0.2 M sodium phosphate buffer pH 7.4, 0.1-1% DMSO
[5] = Table 1, dissociation constant for glutathione, calculated from changes in the fluorescence spectrum, pH 7.4, read-out: Kd
[6] = Table 2, same conditions as Example 2
[7] = Table 2, dissociation constant for glutathione, same conditions as Example 2, read-out: Kd

| Compound | Absorption peak [nm] [1, 4] | Fluorescence peak [nm] [1, 4] | Quantum yield ([1]; Table 1) | pKd [3, 5] | Absorption peak [nm] [1, 6] | Fluorescence peak [nm] [1, 6] | Fluorescence quantum yield [1, 6] | pKd [3, 7] | also measured |
| --- | --- | --- | --- | --- | --- | --- | --- | --- | --- |
| Cc1ccccc1C1=C2C=CC(=N)C=C2[Si](C)(C)c2cc(N)ccc21 [Compound 1, 2Me SiR600] | 593 nm | 613 nm | 0.38 | 2.96 |  |  |  |  | change in fluorescence intensity in cells ([2]; glutathione depletion due to N-ethylmaleimide (NEM) addition, FIG. 4): an increase in fluorescence intensity was found; pKd ([3]; from values at absorption peak wavelength (593 nm) against glutathione concentration, read-out: dissociation constant Kd): 3.00; pKd ([3]; from values at fluorescence peak wavelength (614 nm) against glutathione concentration, excitation 590 nm, read-out: dissociation constant Kd): 2.96 |
| CN(C)c1ccc2c(c1)[Si](C)(C)C1=CC(=[N+](C)C)C=CC1=C2c1ccccc1 [Compound 2, Ph SiR650] | 645 nm | 668 nm | 0.14 | 3.05 |  |  |  |  |  |
| COc1ccccc1C1=C2C=CC(=[N+](C)C)C=C2[Si](C)(C)c2cc(N(C)C)ccc21 [Compound 3, 2OMe SiR650] | 649 nm | 672 nm | 0.37 | 1.39 |  |  |  |  |  |
| CN(C)c1ccc2c(c1)[Si](C)(C)C1=CC(=[N+](C)C)C=CC1=C2c1ccccc1O [Compound 4, 2OH SiR650] | 648 nm | 672 nm | 0.31 | 1.37 |  |  |  |  |  |
| CN(C)c1ccc2c(c1)[Si](C)(C)C1=CC(=[N+](C)C)C=CC1=C2c1ccccc1C#N [Compound 5, 2CN SiR650] | 658 nm | 683 nm | 0.25 | 2.92 |  |  |  |  |  |
| COc1ccccc1C1=c2cc3c(cc2[Si](C)(C)c2cc4c(cc21)OCCN4C)=[N+](C)CCO3 [Compound 6, 2OMe OxaSiR diMe] | 699 nm | 740 nm | 0.08 | 3.15 |  |  |  |  |  |
| CN1CCOc2cc3c(cc21)[Si](C)(C)c1cc2c(cc1=C3c1ccccc1O)OCC[N+]=2C [Compound 7, 2OH OxaSiR diMe] | 699 nm | 739 nm | 0.07 | 3.05 |  |  |  |  |  |
| Cc1cc(C(=O)NC2CCC(NC(=O)c3ccc(-c4c5ccc(=[N+](C)C)cc-5oc5cc(N(C)C)ccc45)c(C(=O)[O-])c3)CC2)ccc1C1=C2C=CC(=N)C=C2[Si](C)(C)c2cc(N)ccc21 (stereo not drawn) [Compound 8, 2Me SiR600-TMR] |  |  |  |  |  |  |  |  | change in fluorescence intensity ratio in cells [2]: change in fluorescence intensity ratio observed |
| COC(=O)c1cc(C(=O)NC2CCC(NC(=O)c3ccc(C4=C5C=CC(=N)C=C5[Si](C)(C)c5cc(N)ccc54)c(C)c3)CC2)ccc1-c1c2ccc(=[N+](C)C)cc-2oc2cc(N(C)C)ccc12 (stereo not drawn) [Compound 9, 2Me SiR600-TMR(Me)] |  |  |  |  |  |  |  |  | change in fluorescence intensity ratio in cells [2]: change in fluorescence intensity ratio due to NEM addition was also observed |
| CCc1ccccc1C1=C2C=CC(=N)C=C2[Si](C)(C)c2cc(N)ccc21.O=C(O)C(F)(F)F [Compound 11] |  |  |  |  | 592 nm | 614 nm | 0.44 | 2.64 |  |
| CN=C1C=CC2=C(c3ccccc3OC)c3ccc(NC)cc3[Si](C)(C)C2=C1.O=C(O)C(F)(F)F [Compound 16] |  |  |  |  | 620 nm | 643 nm | 0.34 | 1.80 |  |
| CN=C1C=CC2=C(c3ccccc3O)c3ccc(NC)cc3[Si](C)(C)C2=C1.O=C(O)C(F)(F)F [Compound 17] |  |  |  |  | 620 nm | 643 nm | 0.22 | 1.68 |  |
| CN(C)c1ccc2c(c1)[Si](C)(C)C1=CC(=[N+](C)C)C=CC1=C2c1ccccc1F [Compound 18] |  |  |  |  | 655 nm | 677 nm | 0.19 | 2.89 |  |
| CN(C)c1ccc2c(c1)[Si](C)(C)C1=CC(=[N+](C)C)C=CC1=C2c1cccc(C(F)(F)F)c1 [Compound 21] |  |  |  |  | 650 nm | 673 nm | 0.20 | 3.22 |  |
| CN(C)c1ccc2c(c1)[Si](C)(C)C1=CC(=[N+](C)C)C=CC1=C2c1ccc(C(F)(F)F)cc1 [Compound 22] |  |  |  |  | 650 nm | 673 nm | 0.16 | 3.30 |  |
| CN(C)c1ccc2c(c1)[Si](C)(C)C1=CC(=[N+](C)C)C=CC1=C2c1ccccc1Cl [Compound 23] |  |  |  |  | 655 nm | 676 nm | 0.30 | 1.57 |  |
| Cc1ccccc1C1=C2C=CC(=[N+](C)C)C=C2[Si](C)(C)c2cc(N)ccc21 [Compound 26] |  |  |  |  | 620 nm | 643 nm | 0.14 | 1.82 |  |
| Cc1ccccc1C1=c2cc3c(cc2[Si](C)(C)c2cc4c(cc21)OCCN4C)=[N+](C)CCO3 [Compound 27] |  |  |  |  | 695 nm | 738 nm | 0.06 | 2.68 |  |
